Measured values published in the supplement of paper PMC10307832.

Assays:
Assay in all cases: relative viability (nuclei count vs DMSO), 5 days (fraction); higher = more cells survive
Salubrinal + Decitabine = compound: O=C(/C=C/c1ccccc1)NC(NC(=S)Nc1cccc2cccnc12)C(Cl)(Cl)Cl [Salubrinal] + Nc1ncn([C@H]2C[C@H](O)[C@@H](CO)O2)c(=O)n1 [Decitabine] (partner 2 µM)
In short: (§1)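 Relative viability divides the nuclei count in treated wells by that in vehicle wells. Lung cancer cell lines were seeded in 1536-well plates, dosed by pin tool the next day, and fixed and stained after 5 days in one step with final 0.05% Triton X-100, 1% formaldehyde and 1 ug/ml Hoechst. Dosing was a single drug or a fixed anchor-drug dose plus five library-drug doses (not always all listed) in √10 steps, and values are medians of duplicate plates imaged at 4×.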

Salubrinal + OSI-027 = compound: O=C(/C=C/c1ccccc1)NC(NC(=S)Nc1cccc2cccnc12)C(Cl)(Cl)Cl [Salubrinal] + COc1cccc2cc(-c3nc([C@H]4CC[C@H](C(=O)O)CC4)n4ncnc(N)c34)[nH]c12 [OSI-027] (partner 0.5 µM)
In short: as §1

Salubrinal + Olaparib = compound: O=C(/C=C/c1ccccc1)NC(NC(=S)Nc1cccc2cccnc12)C(Cl)(Cl)Cl [Salubrinal] + O=C(c1cc(Cc2n[nH]c(=O)c3ccccc23)ccc1F)N1CCN(C(=O)C2CC2)CC1 [Olaparib] (partner 8 µM)
In short: as §1

[1] = compound: Cc1ccc2nc(NCCN)c3ncc(C)n3c2c1 + Nc1nc2[nH]cc(CCc3ccc(C(=O)N[C@@H](CCC(=O)O)C(=O)O)cc3)c2c(=O)[nH]1 [Pemetrexed] (partner 0.2 µM)
In short: as §1

Cell Line | relative viability (Salubrinal + Decitabine; first compound 0.08 µM) | relative viability (Salubrinal + Decitabine; first compound 0.253 µM) | relative viability (Salubrinal + Decitabine; first compound 0.8 µM) | relative viability (Salubrinal + Decitabine; first compound 2.53 µM) | relative viability (Salubrinal + Decitabine; first compound 8 µM) | relative viability (Salubrinal + OSI-027; first compound 0.08 µM) | relative viability (Salubrinal + OSI-027; first compound 0.253 µM) | relative viability (Salubrinal + OSI-027; first compound 0.8 µM) | relative viability (Salubrinal + OSI-027; first compound 2.53 µM) | relative viability (Salubrinal + OSI-027; first compound 8 µM) | relative viability (Salubrinal + Olaparib; first compound 0.08 µM) | relative viability (Salubrinal + Olaparib; first compound 0.253 µM) | relative viability (Salubrinal + Olaparib; first compound 0.8 µM) | relative viability (Salubrinal + Olaparib; first compound 2.53 µM) | relative viability (Salubrinal + Olaparib; first compound 8 µM) | relative viability ([1]; first compound 0.04 µM) | relative viability ([1]; first compound 0.1265 µM) | relative viability ([1]; first compound 0.4 µM) | relative viability ([1]; first compound 1.265 µM) | relative viability ([1]; first compound 4 µM)
NCI-H1666 | 0.741 | 0.726 | 0.788 | 0.712 | 0.895 | 0.953 | 0.763 | 0.894 | 0.806 | 0.848 | 0.713 | 0.605 | 0.713 | 0.711 | 0.732 | 0.965 | 0.817 | 0.84 | 0.736 | 0.795
LC-2-ad | 0.751 | 0.63 | 0.792 | 0.771 | 0.813 | 0.91 | 0.797 | 1.03 | 0.818 | 0.782 | 0.677 | 0.708 | 0.729 | 0.728 | 0.709 | 0.303 | 0.276 | 0.268 | 0.275 | 0.291
SK-LU-1 | 0.609 | 0.597 | 0.739 | 0.685 | 0.506 | 0.399 | 0.286 | 0.311 | 0.358 | 0.267 | 0.508 | 0.452 | 0.476 | 0.454 | 0.378 | 0.979 | 0.903 | 0.955 | 0.984 | 0.981
ChaGo-K-1 | 0.574 | 0.523 | 0.56 | 0.523 | 0.467 | 0.731 | 0.479 | 0.581 | 0.612 | 0.435 | 0.46 | 0.404 | 0.449 | 0.395 | 0.383 | 0.248 | 0.267 | 0.256 | 0.252 | 0.253
COR-L 105 | 0.807 | 0.693 | 0.655 | 0.712 | 0.534 | 0.74 | 0.632 | 0.758 | 0.735 | 0.613 | 0.617 | 0.732 | 0.592 | 0.662 | 0.587 | 1.19 | 1.21 | 0.996 | 1.23 | 1.11
NCI-H1975 | 0.315 | 0.357 | 0.351 | 0.389 | 0.366 | 0.959 | 0.567 | 0.891 | 0.703 | 0.405 | 0.926 | 0.59 | 0.777 | 0.769 | 0.613 | 0.309 | 0.29 | 0.3 | 0.313 | 0.324
NCI-H1993 | 0.567 | 0.662 | 0.593 | – | 0.59 | 0.58 | 0.564 | 0.509 | 0.495 | 0.584 | 0.867 | 0.932 | 0.561 | – | 1.47 | 0.595 | 0.623 | 0.528 | 0.57 | 0.613
RERF-LC-KJ | 0.834 | 0.605 | 0.792 | 0.697 | 0.598 | 0.595 | 0.512 | 0.58 | 0.548 | 0.437 | 0.901 | 0.838 | 0.996 | 0.753 | 0.951 | 0.489 | 0.474 | 0.435 | 0.485 | 0.518
NCI-H23 | 0.315 | 0.316 | 0.304 | 0.312 | 0.291 | 0.59 | 0.573 | 0.647 | 0.539 | 0.606 | 0.359 | 0.233 | 0.36 | 0.31 | 0.309 | 0.666 | 0.691 | 0.741 | 0.641 | 0.581
HCC-366 | 0.371 | – | 0.374 | 0.392 | 0.301 | 1.04 | 1.13 | 0.91 | 0.844 | 0.549 | 0.459 | – | 0.401 | 0.341 | 0.357 | 0.157 | 0.202 | 0.146 | 0.126 | 0.165
EMC-BAC-2 | 0.992 | 0.879 | 1.01 | 0.991 | 1.05 | 0.364 | 0.359 | 0.41 | 0.384 | 0.427 | 0.496 | 0.513 | 0.525 | 0.466 | 0.525 | 0.463 | 0.43 | 0.4 | 0.448 | 0.496
NCI-H2405 | 0.726 | 0.726 | 0.754 | 0.757 | 0.729 | 0.614 | 0.643 | 0.664 | 0.637 | 0.599 | 0.951 | 0.879 | 0.925 | 0.822 | 0.928 | 1.17 | 1.01 | 1 | 0.905 | 0.798
NCI-H1944 | 0.445 | 0.452 | 0.43 | 0.476 | 0.428 | 0.384 | 0.389 | 0.483 | 0.387 | 0.406 | 0.435 | 0.478 | 0.461 | 0.431 | 0.417 | 0.687 | 0.586 | 0.582 | 0.555 | 0.587
NCI-H1648 | 0.615 | 0.483 | 0.632 | 0.493 | 0.366 | 0.23 | 0.268 | 0.257 | 0.269 | 0.266 | 0.751 | 1.03 | 0.476 | 1.02 | 0.594 | 0.696 | 0.85 | 0.723 | 0.627 | 0.7
NCI-H358 | 0.24 | 0.219 | 0.234 | 0.188 | 0.202 | 0.83 | 0.74 | 0.848 | 0.582 | 0.672 | 0.817 | 0.434 | 0.724 | 0.558 | 0.523 | 0.185 | 0.165 | 0.166 | 0.178 | 0.192
EPLC-272H | 0.403 | 0.373 | 0.369 | 0.405 | 0.362 | 0.297 | 0.286 | 0.293 | 0.258 | 0.249 | 0.913 | – | 0.977 | 0.596 | 0.452 | 0.278 | 0.358 | 0.488 | 0.281 | 0.414
